# Measured values reported in article PMC9139979, “Features of ZED1227: The First-In-Class Tissue Transglutaminase Inhibitor Undergoing Clinical Evaluation for the Treatment of Celiac Disease” (Cells, 2022).
# Entries after “also recorded” stand apart in the source; their conditions may differ.
# Legend:
# Caco-2 cells = assay: EZ4U viability assay, Caco-2; assay type: cell-based; conditions: up to 1,000 μM, 48 h
# Experimental: Cytotoxicological analysis of ZED1227 was performed using Huh7 (human liver carcinoma, CLS Cell Lines Service GmbH, Eppelheim, Germany) and Caco-2 cells (human epithelial colorectal adenocarcinoma, Sigma Aldrich, Taufkirchen, Germany) with respect to the effect on proliferation and viability, according to the assay protocols provided by the manufacturers of the respective kits. The Cell Proliferation ELISA (BrdU, colorimetric) was purchased from Roche (Mannheim, Germany), whereas the Cell Proliferation and Cytotoxicity Assay EZ4U was purchased from Biomedica (Vienna, Austria). […]
# The EZ4U assay (determination of viability) was performed by incubating the cells with ZED1227 working solution (1% DMSO in culture medium) up to a concentration of 1,000 μM for 48 h, followed by addition of a yellow tetrazolium reagent (not further specified) into the culture medium. The non-toxic tetrazolium salts were reduced to red-colored formazan which was quantified spectrophotometrically. […]
# hTG1 = target: T1, hTG1 (Homo sapiens, UniProt P22735); assay: Fluorescent transamidation assay (DCC-assay), hTG1; assay type: biochemical
# T1 construct: purchased Zedira T035
# T1 sequence (P22735 1-817): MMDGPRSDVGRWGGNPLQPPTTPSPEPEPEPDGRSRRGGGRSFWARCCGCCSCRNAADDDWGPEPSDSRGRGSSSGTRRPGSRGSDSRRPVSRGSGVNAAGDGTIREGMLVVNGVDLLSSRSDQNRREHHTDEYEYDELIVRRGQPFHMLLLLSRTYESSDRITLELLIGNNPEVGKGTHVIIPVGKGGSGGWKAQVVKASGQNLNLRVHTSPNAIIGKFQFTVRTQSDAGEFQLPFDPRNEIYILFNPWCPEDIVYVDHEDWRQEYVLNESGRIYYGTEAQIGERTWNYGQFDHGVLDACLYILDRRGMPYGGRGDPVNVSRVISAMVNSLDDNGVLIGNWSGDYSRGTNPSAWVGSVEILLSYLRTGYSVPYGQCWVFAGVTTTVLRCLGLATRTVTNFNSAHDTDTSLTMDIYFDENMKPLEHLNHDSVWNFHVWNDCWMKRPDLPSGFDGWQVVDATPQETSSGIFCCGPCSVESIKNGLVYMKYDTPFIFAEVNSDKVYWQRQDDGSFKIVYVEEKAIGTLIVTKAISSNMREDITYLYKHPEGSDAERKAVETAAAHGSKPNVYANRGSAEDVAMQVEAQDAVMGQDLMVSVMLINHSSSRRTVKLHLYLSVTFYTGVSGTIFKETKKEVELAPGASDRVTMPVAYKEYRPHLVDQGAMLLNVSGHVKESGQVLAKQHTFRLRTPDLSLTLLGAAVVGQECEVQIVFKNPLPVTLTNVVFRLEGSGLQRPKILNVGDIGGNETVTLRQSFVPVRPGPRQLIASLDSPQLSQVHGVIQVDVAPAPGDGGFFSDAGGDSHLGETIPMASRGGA
# Experimental: Inhibition data were determined using the fluorescent transamidation assay (dansylcadaverine incorporation into glutamine-donor substrate N,N-dimethyl casein, DCC-assay). Briefly, to 15 μL of ZED1227 solution (dissolved and serial diluted in 2% (v/v) DMSO/assay buffer), 285 μL assay buffer [47.5 mM tris(hydroxymethyl)aminomethane, 9.5 mM CaCl2, 9.5 mM glutathione, 2.4% (v/v) glycerol, 190 mM NaCl, pH 8.0] containing dansylcadaverine (15.9 μM), N,N-dimethyl casein (3.8 μM) and the indicated recombinant transglutaminase enzyme [0.95 μg/mL hTG1 (T035), 0.81 μg/mL hTG2 (T022), 0.83 μg/mL hTG6 (T021), all from Zedira] were added, mixed and the kinetic measurement started immediately. […]
# Fluorescence emission was continuously monitored for 30 min at λem = 500 nm (λex = 330 nm) and 37 °C using a CLARIOstar fluorescence plate reader (BMG Labtech, Ortenberg, Germany). […] The respective IC50 (and IC90 for TG2) values were calculated by non-linear regression using the MARS software package (BMG Labtech). […]
# To facilitate comparability during lead structure optimization and to roughly estimate concentrations needed at the target site, the apparent IC50 values (calculated by four-parameter non-linear fit by MARS software) for irreversible inhibitors are more instructive and are therefore reported. […]
smiles,measurement,setting,value
"CCC(CC)CNC(=O)Cn1cccc(NC(=O)[C@H](CC/C=C/C(=O)OC)NC(=O)c2cncn2C)c1=O [ZED1227, (S,E)-Methyl 7-(1-(2-(2-ethylbutylamino)-2-oxoethyl)-2-oxo-1,2-dihydropyridin-3-ylamino)-6-(1-methyl-1H-imidazole-5-carboxamido)-7-oxohept-2-enoate]","Cytotoxicity: Viability, Caco-2 cells",Caco-2 cells,"not cytotoxic up to 1,000 μM; also recorded: no effect up to 1,000 μM no effect up to 1,000 μM no effect up to 1,000 μM no effect up to 1,000 μM"
same,Selectivity hTG1 versus hTG2,hTG1; ratio of app. IC50 values,469 fold
same,IC50,"hTG1; recombinant, transamidation assay, read-out: App. IC50 hTG1",24.9 µM
